According to patent US20240382450A1, “COMPOSITION OF B-CAR[…] A STATIN, AND METHODS OF USING SAME” (OrthoTreat Ltd., priority 2021, published 2024):

Experiments:
femoral bone fracture = assay: Bone quality examined after 35 treatment days (decalcified and non-decalcified); type: in vivo, Sprague Dawley rats; conditions: following 35 treatment days, none-decalcification
Procedure: Pseudo-fractures were created by making a trough on one surface of the femoral shaft through one side of the cortex. The compositions were administered locally by daily injection. Animals: Naive male Sprague Dawley rats (SD rats), 12 weeks old, around 350 g. Right leg was treated while the left leg serves as a control (vehicle).
Bone quality was examined after 35 treatment days. For the G1−B+L group, cell proliferation was improved by >44% compared to untreated bone.
Bone endosteal & periosteal proliferation, defect fill and bone quality were evaluated following 35 treatment days of femoral bone fracture with β-caryophyllene (none-decalcification).

[1] = test system: Human primary osteoblast cells; conditions: osteoblasts, 24 and 96 hours, tested 0 to 6,561 μM
Procedure: (§1) In vitro cytotoxicity & proliferation assay (basal) are being performed on human osteoblasts and stem cells monolayers.
Human primary osteoblast cells are maintained in a 37° C. humidified incubator with 5% CO2 atmosphere. Cells are cultured in Primary Osteoblast Media containing Primary Osteoblast Culture Supplement and 1% of the penicillin/streptomycin stock solution.

MUTZ-3 cells = conditions: MUTZ-3, 24 and 96 hours, tested 0 to 6,561 μM
Procedure: as §1
As a human primary osteoclast cell is unable to proliferate, MUTZ-3, a human cell line model for osteoclast differentiation is also being used. MUTZ-3 cells are maintained in a 37° C. humidified incubator with 5% CO2 atmosphere. Cells are cultured in Dulbecco's modified Eagle's Medium (DMEM) supplemented with 10% foetal calf serum and 1% of the penicillin streptomycin stock solution.

Substance: (−)-β-caryophyllene
- bone quality (femoral bone fracture): Significant improvement
- defect fill (femoral bone fracture): Significant improvement
- endosteal and periosteal proliferation (femoral bone fracture): Significant improvement
- concentration without significant cytotoxic effect [1]: up to 27 μM
- concentration without significant cytotoxic effect (MUTZ-3 cells): up to 27 μM
